Data: ChEMBL document CHEMBL1201862, “PubChem BioAssay data set” (2004)
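Compound exposure: 48 hours, 5 concentrations, 96-well plates. GI50 marks 50% less growth.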 Calls of active or inactive are those of the source. Rule as the data show it: active = GI50 up to about 1.1 µM and inactive = higher.

Legend:
Experiment in all cases: inhibition of tumour cell growth, NCI panel, 48 h
Hs-578T = test system: Hs-578T
UACC-257 = test system: UACC-257
K562 = test system: K562
ACHN = test system: ACHN
HCT-15 = test system: HCT-15
HCC 2998 = test system: HCC 2998
U-251 = test system: U-251
HCT-116 = test system: HCT-116
MDA-MB-435 = test system: MDA-MB-435
MDA-MB-231 = test system: MDA-MB-231
SF-295 = test system: SF-295
RPMI-8226 = test system: RPMI-8226
DU-145 = test system: DU-145
TK-10 = test system: TK-10
IGROV-1 = test system: IGROV-1
SK-OV-3 = test system: SK-OV-3
T47D = test system: T47D
EKVX = test system: EKVX
SK-MEL-5 = test system: SK-MEL-5
CCRF-CEM = test system: CCRF-CEM
SF-268 = test system: SF-268
SNB-19 = test system: SNB-19
SR = test system: SR
786-0 = test system: 786-0
A549 = test system: A549
PC-3 = test system: PC-3
HOP-92 = test system: HOP-92
NCI-H23 = test system: NCI-H23
SK-MEL-2 = test system: SK-MEL-2
OVCAR-4 = test system: OVCAR-4
LOX IMVI = test system: LOX IMVI
SF-539 = test system: SF-539
MCF7 = test system: MCF7
MOLT-4 = test system: MOLT-4
M14 = test system: M14
HOP-62 = test system: HOP-62
SNB-75 = test system: SNB-75
Malme-3M = test system: Malme-3M
SW-620 = test system: SW-620
CAKI-1 = test system: CAKI-1
NCI-H522 = test system: NCI-H522
SN12C = test system: SN12C
UO-31 = test system: UO-31
OVCAR-5 = test system: OVCAR-5
OVCAR-3 = test system: OVCAR-3
BT-549 = test system: BT-549
NCI/ADR-RES = test system: NCI/ADR-RES
A498 = test system: A498
OVCAR-8 = test system: OVCAR-8
HT-29 = test system: HT-29
UACC-62 = test system: UACC-62
SK-MEL-28 = test system: SK-MEL-28
RXF 393 = test system: RXF 393
NCI-H460 = test system: NCI-H460
KM12 = test system: KM12
COLO 205 = test system: COLO 205
HL-60 = test system: HL-60
NCI-H226 = test system: NCI-H226

N[C@@H]1c2c(Br)sc(Br)c2C(=O)[C@H]1Br
GI50 (Hs-578T): 54.6 µM (inactive) | GI50 (UACC-257): 18.6 µM (inactive) | GI50 (K562): > 28.3 µM (inactive) | GI50 (ACHN): 20.6 µM (inactive) | GI50 (HCT-15): 25.1 µM | GI50 (HCC 2998): 31.3 µM (inactive) | GI50 (U-251): 22.7 µM (inactive) | GI50 (HCT-116): 17.3 µM (inactive) | GI50 (MDA-MB-435): 23 µM (inactive) | GI50 (MDA-MB-231): 23.6 µM (inactive) | GI50 (SF-295): > 70.6 µM (inactive) | GI50 (RPMI-8226): 7.45 µM (inactive) | GI50 (DU-145): > 60.3 µM (inactive) | GI50 (TK-10): > 100 µM (inactive) | GI50 (IGROV-1): 20.6 µM (inactive) | GI50 (SK-OV-3): > 100 µM (inactive) | GI50 (T47D): 30.2 µM (inactive) | GI50 (EKVX): 34.4 µM (inactive) | GI50 (SK-MEL-5): 2.6 µM (inactive) | GI50 (CCRF-CEM): 2.02 µM (inactive) | GI50 (SF-268): 31.2 µM (inactive) | GI50 (SNB-19): 45.9 µM (inactive) | GI50 (SR): 16.1 µM (inactive) | GI50 (786-0): 23.1 µM (inactive) | GI50 (A549): > 100 µM (inactive) | GI50 (PC-3): 37.2 µM (inactive) | GI50 (HOP-92): 17.5 µM (inactive) | GI50 (NCI-H23): 24.8 µM (inactive) | GI50 (SK-MEL-2): > 100 µM (inactive) | GI50 (OVCAR-4): 27.2 µM (inactive) | GI50 (LOX IMVI): 15.7 µM (inactive) | GI50 (SF-539): > 63.1 µM (inactive) | GI50 (MCF7): 36.7 µM (inactive) | GI50 (MOLT-4): 4.69 µM (inactive) | GI50 (M14): 20.6 µM (inactive) | GI50 (HOP-62): 50.4 µM (inactive) | GI50 (SNB-75): > 100 µM (inactive) | GI50 (Malme-3M): 21.7 µM (inactive) | GI50 (SW-620): 18.7 µM (inactive) | GI50 (CAKI-1): 27.3 µM (inactive) | GI50 (NCI-H522): 14.7 µM (inactive) | GI50 (SN12C): 24.9 µM (inactive) | GI50 (UO-31): 27.9 µM (inactive) | GI50 (OVCAR-5): > 82.4 µM (inactive) | GI50 (OVCAR-3): 30.6 µM (inactive) | GI50 (BT-549): 19.1 µM (inactive) | GI50 (NCI/ADR-RES): 22.2 µM (inactive) | GI50 (A498): 35.2 µM (inactive) | GI50 (OVCAR-8): 20.5 µM (inactive) | GI50 (HT-29): 21.7 µM (inactive) | GI50 (UACC-62): 20.5 µM (inactive) | GI50 (SK-MEL-28): 28.5 µM (inactive) | GI50 (RXF 393): 22.1 µM (inactive) | GI50 (NCI-H460): 57.1 µM (inactive) | GI50 (KM12): 26.4 µM (inactive) | GI50 (COLO 205): 1.88 µM (inactive) | GI50 (HL-60): 2.42 µM (inactive) | GI50 (NCI-H226): > 42.3 µM (inactive)
